From patent US10960084B2, “Modulation of fluid intake” (California Institute of Technology, priority 2018, dated 2021) come the findings set out here.

For assay [1], the system named is SFO^nNOS neurons. Put plainly: Salt/Mannitol loading with fiber photometry of SFO^nNOS/MnPO^nNOS neurons and drinking. Particulars: fiber photometry; for activity of SFO^nNOS neurons after intraperitoneal injection: 2 M solution i.p. Format: in vivo, mice. As for the experimental part: Salt/Mannitol Loading Experiments: 150 μL/300 μL of 2 M NaCl or 300 μL of 2 M Mannitol was injected intraperitoneally at the end of the acclimatization period. For FIGS. 1P-T and FIGS. 7P-S, CNO or vehicle (water) was injected 10 min prior to NaCl/Mannitol injection. We measured bulk fluorescence signals using fiber photometry as previously described^[26]. Briefly, 490 nm and 405 nm LEDs ([…] and […]) were collimated and delivered to the brain. The light intensity was kept less than 100 μW during all recordings. The fluorescence signal was then focused onto a femtowatt photoreceiver (Newport, Model 2151). The modulation and demodulation were done with an RP2.1 real time processor (Tucker-Davis Technologies) running custom software. The licks from the lickometer were simultaneously recorded as real-time TTL signals to the RP2.1. Fluorescence changes were analyzed using custom MATLAB (MathWorks) code as described previously^[26]. Data were extracted and subjected to a low pass filter at 1.8 Hz. A linear function was used to scale up the 405 nm channel signal to the 490 nm channel signal to get the fitted 405 nm signal. The resultant ΔF/F was calculated as (raw 490 nm signal-fitted 405 nm signal)/(fitted 405 nm signal). For brief access tests, the Area Under Curve (ΣΔFduring) was quantified by integrating the fluorescence signals during the bout. For all bouts, the mean fluorescence for 30 s prior to the first lick was calculated and subtracted from the entire session. ΔF changes (ΔFpost-ΔFpre) were calculated by subtracting the mean fluorescence signal during the 2-s period before the first lick from the mean signal during the 2-s at 1 min after the bout. For displaying traces, the fluorescence data was time-binned by a factor of 2.5 times the sampling frequency and down-sampled to 1 Hz. For long-term tests, the Area Under Curve was calculated for 2.5 min after the start of the bout. […] For […]), the first bout at the start of the session and the last bout within 10 min of access were used. The AUC for the PSTHs were calculated during the first or the last 15 seconds.

Assay [2] deals with MnPO. Put plainly: Intra-cranial injection of Exendin-4 into the MnPO, water intake. The class given is in vivo, mice. Particulars: 100 ng into the MnPO vs vehicle (ACSF). As for the experimental part: 100 ng of Exendin-4 (Sigma Aldrich) dissolved in 1 μL of ACSF was delivered by a custom-made cannula and tubing (PlasticsOne) connected to a Hamilton syringe driven by a pump (NewEra PumpSystems) at 100 nL/min into the MnPO of water deprived animals under head-fixed conditions. Two minutes after infusion, freely-moving animals were given access to water for the next 45 minutes. The cannula position was verified by infusing Exendin-4-FAM (Anaspec) conjugate before euthanasia. ELISA

Assay [3] concerns MnPO^GLP1r neurons. Put plainly: Whole-cell recording from MnPO^GLP1r neurons with Exendin-4. Conditions: brain slice preparation. Format: cell-based, mice. From the text:
Procedures for preparation of acute brain slices and recordings with optogenetic stimulations were similar to those described previously^[10],[36]. After decapitation, the brain was removed and immersed in ice-cold solution. Coronal slices ([…]) were cut using a vibratome (VT-1200s, Leica) and moved into HEPES-holding solution (NaCl 92, KCl 2.5, NaH2PO4 1.2, NaHCO3 30, HEPES 20, glucose 25, Na-ascorbate 5, Thiourea 2, Na14 pyruvate 3, MgSO4 2, CaCl2 2, pH 7.35). The slices were allowed to recover at 33° C. for 30 min and then held at room temperature ([…]) until use.
While recording, slices were perfused continuously (˜2 mL/min) with artificial cerebrospinal fluid (ACSF-NaCl 124, KCl2.5, NaH2PO4 1.2, NaHCO3 24, glucose 25, MgSO4 1, CaCl2 2) at 25° C. Neurons were visualized and targeted using an upright IR19 DIC microscope (BX51WI, Olympus). […] In order to confirm the PSCs recorded were GABAergic, picrotoxin (150 μM) was applied through the bath in part of the experiments. […] CNO (˜6 μM) was applied by a puff (30 s) from another glass pipette placed ˜50 μm from the recorded cell.

As to `[Cl-].[Na+]` [NaCl], in assay [1], the “activity of SFO^nNOS neurons after intraperitoneal injection” value is “robustly activated”. In assay [1] (2 M, 300 μl i.p., water-satiated animal), the “activity of MnPO^nNOS neurons after intraperitoneal injection” value is “robustly activated”.
With `OC[C@@H](O)[C@@H](O)[C@H](O)[C@H](O)CO` [Mannitol], the “activity of SFO^nNOS neurons after intraperitoneal injection” value in assay [1] was “robustly activated”.
As for Exendin-4, the “water intake after water deprivation” value in assay [2] was “no effect on water intake”. In addition, in assay [3], the “firing frequency of MnPO^GLP1r neurons” value is “no effect on the firing frequency” and the “resting membrane potential of MnPO^GLP1r neurons” value is given as “small decrease”.
